Source: US20240083943A1, “VEGF-REGULATING PEPTIDES” (IDP DISCOVERY PHARMA, S.L., priority 2020, published 2024)
Positions of bridges follow the written chain, without caps; N, C: chain ends. Non-standard residues stand in square brackets, D forms with d. No end group written: not given here. formula (I), R19:CH3 = not defined here; formula (I) = not defined here

Tests used:
[1] = system: VEGF protein in ARPE-19 human retinal pigment epithelia cells; assay: VEGF ELISA of culture supernatant, CoCl2-induced hypoxia vs normoxia, ARPE-19 cells; type: cell-based; conditions: for Relative VEGF (Hipoxia/Normoxia) / Relative VEGF (Hypoxia/Normoxia): peptide 20 μM; for Relative VEGF (Hipoxia/Normoxia): Table 3, untreated ratio 1.87; for Effect on VEGF expression under hypoxia conditions (in words): compared with untreated cells; for Relative VEGF (Hypoxia/Normoxia): 24 hr, 300 μM CoCl2, Table 2, untreated ratio 2.02
Procedure: (§1) MDA-MB-231 human breast cancer cell lines, HaCat immortalized human keratinocyte cell line and ARPE-19 human retinal pigment epithelia (RPE) cell line were purchased from American Type Culture Collection (ATCC, Manassas, VA, USA). Human cells were routinely authenticated using genotype profiling according to the ATCC guidelines. ARPE-19 cells were maintained in DMEM/F12 medium with HEPES supplemented with 10% fetal calf serum and antibiotics.
(§2) A fresh stock solution 0.4 M CoCl2 was prepared in water and added to the medium to obtain the concentration of 50 μM for MDA-MB-231, 200 μM for HaCaT and 300 μM for ARPE-19 cells. Cells were incubated with respective CoCl2 concentration for 24 hr to mimic hypoxic conditions.
The VEGF-content of the supernatant of culture cells was measured by a VEGF-ELISA (Abcam; ab100662; Cambridge, UK) following the manufacturer's instructions. The range of detection of the ELISA was between 8.23 pg/ml and 6,000 pg/ml. […] The same procedure was used in the presence of the peptides of the invention.
(§3) RT-PCR experiments were repeated at least 2 times. For VEGF assays, the mean±S.D of 3 determinations carried out in triplicate were calculated. Statistical significance was determined using Mann-Whitney tests for comparisons of means in a SPPS statistical software for Microsoft Windows, release 6.0 (Professional Statistic, Chicago, IL, USA). Individual comparisons were made using Student's two-tailed, unpaired t-tests. Criterion for significance was P<0.05 for all comparisons.
The objective of this study was to determine the regulation of VEGF by the peptides in hypoxia induced conditions in ARPE-19 cell lines. The VEGF protein (using ELISA kit) was calculated in untreated cells in hypoxia vs. normoxia and a threshold of activity was set. Then, cells were treated with a solution of the corresponding peptide of the invention at 20 μM dissolved in cell culture medium alone (normoxia condition) or in the presence of CoCl2 (hypoxia conditions) and the ratio of VEGF protein amount was calculated. The peptides showing a VEGFhyp/VEGFnorm ratio higher than the ratio in untreated cells were considered as inducers of VEGF protein, while peptides providing a VEGFhyp/VEGFnorm ratio lower than the ratio in untreated cells were considered as reducers of VEGF protein, as reported in table 2.

[2] = system: VEGF protein in MDA-MB-231 human breast cancer cells; assay: VEGF ELISA of culture supernatant, CoCl2-induced hypoxia vs normoxia, MDA-MB-231 cells; type: cell-based; conditions: peptide 10 μM, untreated ratio 1.72
Source text: as §1
(§4) MDA-MB-231 and HaCaT were maintained in DMEM medium with glucose 4.5gr/L, glutamine and pyruvate 2 mM and supplemented with 10% fetal calf serum and antibiotics.
as §2
(§5) The VEGF-content of the supernatant of culture cells was measured by a VEGF-ELISA (Abcam; ab100662; Cambridge, UK) following the manufacturer's instructions. […]
(§6) RT-PCR experiments were repeated at least 2 times. For VEGF assays, the mean±S.D of 3 determinations carried out in triplicate were calculated. Statistical significance was determined using Mann-Whitney tests for comparisons of means in a SPPS statistical software for Microsoft Windows, release 6.0 (Professional Statistic, Chicago, IL, USA). […]

[3] = system: VEGF protein in HaCat immortalized human keratinocyte cells; assay: VEGF ELISA of culture supernatant, CoCl2-induced hypoxia vs normoxia, HaCat cells; type: cell-based; conditions: peptide 10 μM, untreated ratio 1.15
Source text: as §1, §4, §2, §5, §6

[4] = system: VEGF mRNA in ARPE-19 cells; assay: Real time quantitative RT-PCR of VEGF mRNA in ARPE-19 cells; type: cell-based, human; conditions: for VEGF mRNA level compared to untreated cells (in words): ARPE-19, 10 μM; for Relative Copy to Control / VEGF mRNA Copy/Copy million of Actine: ARPE-19, peptide 10 μM, 24 hr; for Relative Copy to Control: control = untreated normoxia (1)
Procedure: as §2
Extraction of RNA from indicated cells was performed using the NZY total RNA isolation kit (Nzytech, Lisboa, Portugal) and cDNA prepared using the NZY First-Strand cDNA Synthesis Kit (Nzytech). Primers were designed using Primer Blast software (NCBI) and obtained from Thermo-Fisher. mRNA expression levels were evaluated by qRT-PCR (QuantStudio 5 Real-Time PCR System, Applied Biosystems, Foster City, CA, USA) using SYBR green master mix (Applied Biosystems) and normalized to […]. The following primers were used in this study: β-Actin (forward: 5″-AGAAAATCTGGCACCACACC-3″ (SEQ ID NO: 32); reverse: 5″-GGGGTGTTGAAGGTCTCAAA-3″ (SEQ ID NO: 33)); VGFA (forward: 5″-TACTGCCATCCAATCGAGAC-3″ (SEQ ID NO: 34); reverse: 5″-GCA TGG TGA TGT TGG ACT-3″ (SEQ ID NO: 35)).
as §3
The VEGF expression regulation was also determined by […] in ARPE-19 cells treated with the peptide SEQ ID NO: 17 at 10 μM for 24 hr in normoxia and hypoxia conditions.

[5] = system: CD31 staining (blood vessels) in MDA-MB-231 tumours; assay: Angiogenesis reduction in vivo: CD31 immunohistochemistry of MDA-MB-231 breast tumour xenografts; conditions: MDA-MB-231 xenograft in athymic mice, s.c. 2x week, vs vehicle
Procedure: MDA-MB-231 cells were inoculated (2.5×10^6 cells/animal) in 100 μl of DMEM into the mammary fat pad of athymic mice. When tumours reached a volume of 100 mm3, animals were divided in groups and treated 2× week by s.c. administration with vehicle (2% Tween-20 in 0.9% NaCl sterile, control group) and 2× week by s.c. administration with SEQ ID NO:17 (treated group). At sacrifice, tumours were collected, weighed and formalin-fixed (24 h). Formalin-fixed tumours were processed for paraffin-embedded tissue blocks, which were sent for analysis to the Dept. Bioquimica y Biologic Molecular A, Facultad de Veterinaria, Universidad de Murcia.
Hematoxylin, eosin, diaminobenzidine tetrahydrochloride and hydrogen peroxide were obtained from Merck (Madrid, Spain). The antibody mouse monoclonal anti-CD31 was obtained from Novus.
Tumours washed in PBS, fixed in 10% formalin and embedded in paraffin.
Haematoxylin and eosin (H&E) staining was performed on serial sections of paraffin embedded tissues. For immunohistochemistry, paraffin sections were deparaffinized and subjected to antigen retrieval in sodium citrate buffer (pH 6.0). Tissue endogenous peroxidase was inactivated with 5% hydrogen peroxide. Slides were blocked and incubated with primary antibodies overnight at 4 C. […] The stained slides were scanned using a SCN400F Leica scanner and images were analysed using ImageJ software.

KASVMRLTISYLRV [SEQ ID NO: 37, 14 amino acid lineal peptide]
Relative VEGF (Hipoxia/Normoxia) [1]: 2.02

KASVMRLTISYLRVR [SEQ ID NO: 36, 15 amino acid lineal peptide disclosed in WO2006038208(A2), reference compound]
Effect on VEGF expression under hypoxia conditions (in words) [1]: no effect in the modulation of VEGF expression | Relative VEGF (Hipoxia/Normoxia) [1]: 1.89

LDKASVMRLTISYLRVRK [SEQ ID NO: 13, lineal peptide, 18 amino acids]
Effect on VEGF expression under hypoxia conditions (in words) [1]: increase VEGF expression under hypoxia conditions | Relative VEGF (Hypoxia/Normoxia) [1]: 2.59

SEQ ID NO: 14: cross-linked (stapled) peptide derived from SEQ ID NO: 1 (KA[formula (I), R19:CH3]VMRLTI[formula (I), R19:CH3]YLRVR-NH2; staple 3-10; reading uncertain; also: staple: ‑(CH2)6‑CH:CH‑(CH2)3‑)
Relative VEGF (Hypoxia/Normoxia) [1]: 1.41

SEQ ID NO: 16: cross-linked (stapled) peptide derived from SEQ ID NO: 1 (KASVM[formula (I), R19:CH3]LTISYL[formula (I), R19:CH3]VR-NH2; staple 6-13; reading uncertain; also: staple: ‑(CH2)6‑CH:CH‑(CH2)3‑)
Relative VEGF (Hypoxia/Normoxia) [1]: 1.01 | Relative VEGF (Hypoxia/Normoxia) [2]: 1.30 | Relative VEGF (Hypoxia/Normoxia) [3]: 0.88

SEQ ID NO: 17: cross-linked (stapled) peptide; differs from SEQ ID NO: 16 only in the C-terminal end (KASVM[formula (I), R19:CH3]LTISYL[formula (I), R19:CH3]VR-OH; staple 6-13; reading uncertain; also: staple: ‑(CH2)6‑CH:CH‑(CH2)3‑)
VEGF mRNA level compared to untreated cells (in words) ([4]; hypoxia): reduced significantly the mRNA level | VEGF mRNA level compared to untreated cells (in words) ([4]; normoxia): just a slide reduction | Relative Copy to Control ([4]; hypoxia, untreated hypoxia 4.50): 0.76 | VEGF mRNA Copy/Copy million of Actine ([4]; hypoxia, untreated hypoxia 152782): 25873 Copy/Copy million of Actine | Relative Copy to Control ([4]; normoxia): 0.93 | VEGF mRNA Copy/Copy million of Actine ([4]; normoxia, untreated normoxia 33918): 31454 Copy/Copy million of Actine | CD31 expression in treated tumours compared with the control (immunohistochemistry) [5]: statistically significant decrease of CD31 expression | Relative VEGF (Hypoxia/Normoxia) [1]: 1.02

SEQ ID NO: 19: cross-linked (stapled) peptide derived from SEQ ID NO: 1 (LDKA[formula (I), R19:CH3]VMRLTI[formula (I), R19:CH3]YLRVRK-NH2; staple 5-12; reading uncertain; also: staple: ‑(CH2)6‑CH:CH‑(CH2)3‑)
Relative VEGF (Hypoxia/Normoxia) [1]: 1.39

SEQ ID NO: 20: cross-linked (stapled) peptide derived from SEQ ID NO: 1 (LDKASV[formula (I), R19:CH3]RLTISY[formula (I), R19:CH3]RVRK-NH2; staple 7-14; reading uncertain; also: staple: ‑(CH2)6‑CH:CH‑(CH2)3‑)
Relative VEGF (Hypoxia/Normoxia) [1]: 0.99

SEQ ID NO: 21: cross-linked (stapled) peptide derived from SEQ ID NO: 1 (LDKASVM[formula (I), R19:CH3]LTISYL[formula (I), R19:CH3]VRK-NH2; staple 8-15; reading uncertain; also: staple: ‑(CH2)6‑CH:CH‑(CH2)3‑)
Relative VEGF (Hypoxia/Normoxia) [1]: 1.36

SEQ ID NO: 29: peptide of the second aspect with linker biradical, derived from SEQ ID NO: 22 (RSRRSKE[formula (I), R19:CH3]EVFYEL[formula (I), R19:CH3]HQ-NH2; staple 8-15; reading uncertain; also: staple: ‑(CH2)6‑CH:CH‑(CH2)3‑)
Relative VEGF (Hypoxia/Normoxia) [1]: 2.60

SEQ ID NO: 30: peptide of the second aspect with linker biradical, derived from SEQ ID NO: 22 (RSRRSKESE[formula (I)]FYELAH[formula (I)]-NH2; staple 10-17; reading uncertain; also: staple: ‑(CH2)6‑CH:CH‑(CH2)3‑)
Relative VEGF (Hypoxia/Normoxia) [1]: 2.70

SEQ ID NO: 31: peptide of the second aspect with linker biradical, derived from SEQ ID NO: 22 (RS[formula (I)]RSKESE[formula (I)]FYELAHQLP-NH2; staple 3-10; reading uncertain; also: staple: ‑(CH2)6‑CH:CH‑(CH2)3‑)
Relative VEGF (Hypoxia/Normoxia) [1]: 2.64
